Here are results for 29 molecules from patent publication US11407719B2, “Anti-inflammatory agents” (Resverlogix Corp., priority 2009, dated 2022).

One experiment relates to hIL-6 mRNA. In words: Quantification of hIL-6 mRNA. In kind it is cell-based, human. The arrangement: key: Active: an active compound is one that causes a ≥20% inhibition in IL-6 mRNA at a concentration less than or equal to 10 μM. As to conditions: IL-6 mRNA by real-time PCR; differentiated U937 cells, 1 h pretreatment, lipopolysaccharide stimulation 3 h; concentration ≤10 μM. The procedure:
In this example, […] in tissue culture cells was quantitated to measure the transcriptional inhibition of hIL-6 when treated with a compound of the invention.
A human leukemic monocyte lymphoma cell line (U937) was plated (3.2×10^5 cells per well) in a 96-well plate in 100 μL RPMI-1640, and differentiated for 3 days prior to the addition of the compound of interest. The cells were pretreated for 1 h with the test compound prior to stimulation with lipolysaccharide from Escherichia coli. The cells were incubated at 37° C. for 3 h before the cells were harvested. At time of harvest, the spent media was removed from the cells and the cells were rinsed in 200 μL PBS. Cell lysis solution (70 μL) was added the cells in each well and incubated for 5-10 min at room temperature, to allow for complete cell lysis and detachment. mRNA was then prepared using the “mRNA Catcher PLUS plate” (Invitrogen), according to the protocol supplied. After the last wash, as much wash buffer as possible was aspirated without allowing the wells to dry. Elution buffer (E3, 70 μL) was then added to each well. mRNA was then eluted by incubating the mRNA Catcher PLUS plate with Elution Buffer for 5 min at 68° C. and then immediately placing the plate on ice.
The eluted mRNA isolated was then used in a one-step quantitative real-time PCR reaction, using components of the Ultra Sense Kit together with Applied Biosystems primer-probe mixes. Real-time PCR data was analyzed, normalizing the Ct values for hIL-6 to an internal control, prior to determining the fold induction of each unknown sample, relative to the control.
In general terms: Real-time PCR tracks product formation cycle by cycle.

For another experiment, the system named is VCAM-1 mRNA. In words: Quantification of hVCAM mRNA. In kind it is cell-based, human. The arrangement: key: Active: an active compound is one that causes a ≥20% inhibition in VCAM-1 mRNA at a concentration less than or equal to 10 μM; -1 mRNA at a concentration less than or equal to 10 μM. As to conditions: VCAM-1 mRNA by real-time PCR; HUVECs, 1 h pretreatment, tumor necrosis factor-α stimulation 24 h; concentration ≤10 μM. How it is done:
In this example, […] in tissue culture cells was quantitated to measure the transcriptional inhibition of hVCAM when treated with a compound of the invention.
Human umbilical vein endothelial cells (HUVECs) were plated in a 96-well plate (4.0×10^3 cells/well) in 100 μL EGM media and incubated for 24 h prior to the addition of the compound of interest. The cells were pretreated for 1 h with the test compound prior to stimulation with tumor necrosis factor-α. The cells were incubated for an additional 24 h before the cells were harvested. At time of harvest, the spent media was removed from the HUVECs and rinsed in 200 μL PBS. Cell lysis solution (70 μL) was then added the cells in each well and incubated for ˜5-10 min at room temperature, to allow for complete cell lysis and detachment. mRNA was then prepared using the “mRNA Catcher PLUS plate” (Invitrogen), according to the protocol supplied. After the last wash, as much wash buffer as possible was aspirated without allowing the wells to dry. Elution buffer (E3, 70 μL) was then added to each well. mRNA was then eluted by incubating the mRNA Catcher PLUS plate with elution buffer for 5 min at 68° C. and then immediately placing the plate on ice.
The eluted mRNA so isolated was then used in a one-step quantitative real-time PCR reaction, using components of the Ultra Sense Kit together with Applied Biosystems primer-probe mixes. Real-time PCR data was analyzed, normalizing the Ct values for hVCAM to an internal control, prior to determining the fold induction of each unknown sample, relative to the control.

The structures appear in SMILES notation.

Consider `COc1cc(OC)c2c(=O)[nH]c(-c3cc(C)c(OCCN4C(=O)CCC4=O)c(C)c3)nc2c1` [1-(2-(4-(5,7-Dimethoxy-4-oxo-3,4-dihydroquinazolin-2-yl)-2,6-dimethylphenoxy)ethyl)pyrrolidine-2,5-dione], for which the “Inhibition of IL-6 expression” value in the experiment with hIL-6 mRNA is recorded as “Active”. For the same molecule, the “Inhibition of VCAM-1 expression” value in the experiment with VCAM-1 mRNA is listed as “Active”.

In the case of `COc1cc(OC)c2c(=O)[nH]c(-c3ccc(CN4CCC(NC(C)C)CC4)cc3)nc2c1` [2-(4-((4-(Isopropylamino)piperidin-1-yl)methyl)phenyl)-5,7-dimethoxyquinazolin-4(3H)-one], the “Inhibition of IL-6 expression” value in the experiment on hIL-6 mRNA was “Active”.

`COc1cc(OC)c2c(=O)[nH]c(-c3ccc(N(CCO)CCO)cc3)nc2n1` [2-(4-(bis(2-hydroxyethyl)amino)phenyl)-5,7-dimethoxypyrido[2,3-d]pyrimidin-4(3H)-one]: the “Inhibition of IL-6 expression” value in the experiment on hIL-6 mRNA is “Active”.

Turning to `COc1cc(OC)c2c(=O)[nH]c(-c3ccc(N4CCC(NCc5ccccc5)CC4)nc3)nc2c1` [2-(6-(4-(Benzylamino)piperidin-1-yl)pyridin-3-yl)-5,7-dimethoxyquinazolin-4(3H)-one], the “Inhibition of IL-6 expression” value with hIL-6 mRNA is reported as “Active”.

Turning to `COc1cc(OC)c2c(=O)[nH]c(-c3ccc(CN4CCN(C(C)C)CC4)cc3)nc2c1` [2-(44(4-Isopropylpiperazin-1-yl)methyl)phenyl)-5,7-dimethoxyquinazolin-4(3H)-one], in the experiment with hIL-6 mRNA, the “Inhibition of IL-6 expression” value is “Active”.

Regarding `COc1cc(OC)c2c(=O)[nH]c(-c3ccc(N4CCC(NC(=O)N(C)C)CC4)cc3)nc2c1` [3-(1-(4-(5,7-Dimethoxy-4-oxo-3,4-dihydroquinazolin-2-yl)phenyl)piperidin-4-yl)-1,1-dimethylurea], in the experiment with hIL-6 mRNA, the “Inhibition of IL-6 expression” value is on record as “Active”.

For the molecule `COc1cc(OC)c2c(=O)[nH]c(-c3cc(C)c(OCCN4CCN(C)CC4)c(C)c3)cc2c1` [3-(3,5-dimethyl-4-(2-(4-methylpiperazin-1-yl)ethoxy)phenyl)-6,8-dimethoxyisoquinolin-1(2H)-one], the “Inhibition of IL-6 expression” value in the experiment on hIL-6 mRNA is “Active”.

Consider `COc1cc(OC)c2c(=O)[nH]c(-c3cc(C)c(OCCN4CCOCC4)c(C)c3)cc2c1` [3-(3,5-dimethyl-4-(2-morpholinoethoxy)phenyl)-6,8-dimethoxyisoquinolin-1(2H)-one], for which the “Inhibition of IL-6 expression” value in the experiment on hIL-6 mRNA is listed as “Active”.

`COc1cc(OC)c2c(=O)[nH]c(-c3ccc(OC4CCN(C(=O)N(C)C)CC4)cc3)nc2c1` [4-(4-(5,7-Dimethoxy-4-oxo-3,4-dihydroquinazolin-2-yl)phenoxy)-N,N-dimethylpiperidine-1-carboxamide]: in the experiment with hIL-6 mRNA, the “Inhibition of IL-6 expression” value is recorded as “Active”.

`COc1cc(OC)c2c(=O)[nH]c(-c3ccc(N4CCN(C=O)CC4)cc3)nc2c1` [4-(4-(5,7-Dimethoxy-4-oxo-3,4-dihydroquinazolin-2-yl)phenyl)piperazine-1-carbaldehyde]: the “Inhibition of IL-6 expression” value in the experiment with hIL-6 mRNA is “Active”.

In the case of `CNC1CCN(c2ccc(-c3nc4cc(OC)cc(OC)c4c(=O)[nH]3)cc2)C1` (stereo not drawn) [5,7-Dimethoxy-2-(4-(3-(methylamino)pyrrolidin-1-yl)phenyl)quinazolin-4(3H)-one], the “Inhibition of IL-6 expression” value in the experiment with hIL-6 mRNA was “Active”.

For `COc1cc(OC)c2c(=O)[nH]c(-c3ccc(N4CCNC(C)C4)cc3)nc2c1` (stereo not drawn) [5,7-Dimethoxy-2-(4-(3-methylpiperazin-1-yl)phenyl)quinazolin-4(3H)-one], the “Inhibition of IL-6 expression” value in the experiment on hIL-6 mRNA is recorded as “Active”.

Consider `COc1cc(OC)c2c(=O)[nH]c(-c3ccc(N4CCN(C(=O)c5cccs5)CC4)cc3)nc2c1` [5,7-Dimethoxy-2-(4-(4-(thiophene-2-carbonyl)piperazin-1-yl)phenyl)quinazolin-4(3H)-one], for which, in the experiment on hIL-6 mRNA, the “Inhibition of IL-6 expression” value is listed as “Active”.

Consider `COc1cc(OC)c2c(=O)[nH]c(-c3ccc(N4CCN(C(=O)c5cccnc5)CC4)cc3)nc2c1` [5,7-Dimethoxy-2-(4-(4-nicotinoylpiperazin-1-yl)phenyl)quinazolin-4(3H)-one], for which the “Inhibition of IL-6 expression” value with hIL-6 mRNA was “Active”.

For `COc1cc(OC)c2c(=O)[nH]c(-c3ccc(N4CCC(=O)CC4)cc3)nc2n1` [5,7-Dimethoxy-2-(4-(4-oxopiperidin-1-yl)phenyl)pyrido[2,3-d]pyrimidin-4(3H)-one], the “Inhibition of IL-6 expression” value in the experiment on hIL-6 mRNA is listed as “Active”.

For `COc1cc(OC)c2c(=O)[nH]c(-c3ccc(N4CCN(C(=O)c5ccccn5)CC4)cc3)nc2c1` [5,7-Dimethoxy-2-(4-(4-picolinoylpiperazin-1-yl)phenyl)quinazolin-4(3H)-one], in the experiment on hIL-6 mRNA, the “Inhibition of IL-6 expression” value is on record as “Active”.

On to `COc1cc(OC)c2c(=O)[nH]c(-c3ccc(Nc4ccc(C)cc4)cc3)nc2c1` [5,7-Dimethoxy-2-(4-(p-tolylamino)phenyl)quinazolin-4(3H)-one], for which the “Inhibition of IL-6 expression” value in the experiment with hIL-6 mRNA is “Active”.

With `COc1cc(OC)c2c(=O)[nH]c(-c3ccc(C4CCNCC4)cc3)nc2c1` [5,7-Dimethoxy-2-(4-(piperidin-4-yl)phenyl)quinazolin-4(3H)-one], the “Inhibition of IL-6 expression” value in the experiment on hIL-6 mRNA is “Active”.

Turning to `COc1cc(OC)c2c(=O)[nH]c(-c3ccc(Nc4ccncc4)cc3)nc2c1` [5,7-Dimethoxy-2-(4-(pyridin-4-ylamino)phenyl)quinazolin-4(3H)-one], the “Inhibition of IL-6 expression” value with hIL-6 mRNA is on record as “Active”.

`COc1cc(OC)c2c(=O)[nH]c(-c3ccc(CN4CCN(C)CC4)cc3)nc2c1` [5,7-dimethoxy-2-(4-((4-methylpiperazin-1-yl)methyl)phenyl)quinazolin-4(3H)-one]: the “Inhibition of IL-6 expression” value in the experiment on hIL-6 mRNA is listed as “Active”.

Regarding `COc1cc(OC)c2c(=O)[nH]c(-c3ccc(CN4CCOCC4)cc3)nc2c1` [5,7-dimethoxy-2-(4-(morpholinomethyl)phenyl)quinazolin-4(3H)-one], in the experiment on hIL-6 mRNA, the “Inhibition of IL-6 expression” value is recorded as “Active”.

Regarding `COc1cc(OC)c2c(=O)[nH]c(-c3ccc(N4CCOCC4)cc3)nc2c1` [5,7-dimethoxy-2-(4-morpholinophenyl)quinazolin-4(3H)-one], the “Inhibition of IL-6 expression” value in the experiment on hIL-6 mRNA is on record as “Active”.

On to `CC(C)N1CCN(c2ccc(-c3nc4cccc(Cl)c4c(=O)[nH]3)cc2)CC1` [5-Chloro-2-(4-(4-isopropylpiperazin-1-yl)phenyl)quinazolin-4(3H)-one], for which, in the experiment on hIL-6 mRNA, the “Inhibition of IL-6 expression” value was “Active”.

As for `COc1cc(OC)c2c(=O)[nH]c(-c3ccc(CN4CCC(N(C(C)=O)C(C)C)CC4)cc3)nc2c1` [N-(1-(4-(5,7-Dimethoxy-4-oxo-3,4-dihydroquinazolin-2-yl)benzyl)piperidin-4-yl)-N-isopropylacetamide], in the experiment with hIL-6 mRNA, the “Inhibition of IL-6 expression” value is recorded as “Active”.

Turning to `COc1cc(OC)c2c(=O)[nH]c(-c3ccc(N4CCC(NS(C)(=O)=O)CC4)cc3)nc2c1` [N-(1-(4-(5,7-Dimethoxy-4-oxo-3,4-dihydroquinazolin-2-yl)phenyl)piperidin-4-yl)methanesulfonamide], the “Inhibition of IL-6 expression” value in the experiment with hIL-6 mRNA was “Active”.

`COc1cc(OC)c2c(=O)[nH]c(-c3ccc(N4CCC(N(C(C)=O)C(C)C)CC4)cc3)nc2c1` [N-(1-(4-(5,7-dimethoxy-4-oxo-3,4-dihydroquinazolin-2-yl)phenyl)piperidin-4-yl)-N-isopropylacetamide]: the “Inhibition of IL-6 expression” value in the experiment on hIL-6 mRNA is “Active”.

With `COc1cc(OC)c2c(=O)[nH]c(-c3ccc(NS(C)(=O)=O)cc3)nc2c1` [N-(4-(5,7-Dimethoxy-4-oxo-3,4-dihydroquinazolin-2-yl)phenyl)methanesulfonamide], the “Inhibition of IL-6 expression” value in the experiment on hIL-6 mRNA was “Active”.

As for `COc1cc(OC)c2c(=O)[nH]c(-c3ccc(N4CCC(N(Cc5ccccc5)C(C)=O)CC4)nc3)nc2c1` [N-Benzyl-N-(1-(5-(5,7-dimethoxy-4-oxo-3,4-dihydroquinazolin-2-yl)pyridin-2-yl)piperidin-4-yl)acetamide], in the experiment with hIL-6 mRNA, the “Inhibition of IL-6 expression” value is listed as “Active”.

`COc1cc(OC)c2c(=O)[nH]c(-c3ccc(C4CCN(C(=O)OC(C)(C)C)CC4)cc3)nc2c1` [Tert-butyl 4-(4-(5,7-dimethoxy-4-oxo-3,4-dihydroquinazolin-2-yl)phenyl)piperidine-1-carboxylate]: in the experiment on hIL-6 mRNA, the “Inhibition of IL-6 expression” value is recorded as “Active”.
